The text below walks through data of patent US20240196899A1, “PESTICIDAL MIXTURES” (priority 2021, published 2024).

Where two headings read alike, the source gives them in different places.

Experiment [1] relates to Spodoptera littoralis larvae. The experiment in a line: Larval mortality of S. littoralis fed on treated castor bean leaves (tank mix novaluron + methoxyfenozide), Colby synergy. It counts as in vivo. The settings on record: Spodoptera littoralis, in Ricinus communis, Table 1, 0.01 mg a.i./L of each active. As for the experimental part: (§1) Colby's method is used to determine if synergy exists for a combination of active ingredients. According to Colby, the expected action (E) of active ingredients A+B is:
(§2) [formula] • where E=expected efficacy, A and B=the efficacy of two active ingredients A and B at a given dose.
(§3) When the percentage of control observed (O) for the combination is greater than the expected (E) percentage, there is a synergistic effect. The synergism ratio (R) is calculated as the ratio between the […].
A representative experiment was conducted to evaluate the insecticidal control of novaluron, a compound II, namely methoxyfenozide as well as a mixture of novaluron and methoxyfenozide against Spodoptera littoralis larvae.
(§4) The experiments were conducted by applying commercially available compositions of Novaluron (Rimon®) and methoxyfenozide (Runner®) alone or together. The compositions were diluted with water to the stated concentration of the active compound.
(§5) The following active ingredients and their mixtures were evaluated: • Novaluron: 0.01 mg a.i./liter • Methoxyfenozide: 0.01 mg a.i./liter • Novaluron+Methoxyfenozide 0.01 mg a.i./liter+0.01 mg a.i./liter
(§6) To evaluate the insecticidal control of novaluron and methoxyfenozide alone and in a binary mixture, castor bean leaves were treated with the above listed treatments. The treated leaves were exposed for 4-day feeding to 3rd-instar Spodoptera littoralis and the larvae were exposed for additional 4 days on untreated leaves. Larval mortality was determined at day 4 and 8. The treatments were composed of 3-5 replicates of 10 larvae each.

In experiment [2] the test system is Spodoptera littoralis larvae. The experiment in a line: Larval weight gain (LWG) of S. littoralis on treated castor bean leaves. Format: in vivo. Conditions: Table 3. The protocol:
as §4, §5, §6
Larval weight gain (LWG) was also measured in order to determine the effectiveness of the mixture of novaluron and methoxyfenozide when compared to the solo application of novaluron and methoxyfenozide.
Table 3 below summarizes the larval weight gain (LWG) (compared to the control), that was determined 4 days after treatment for the mixture of novaluron and methoxyfenozide.

Experiment [3] deals with T. absoluta. In words: Insecticidal % control against T. absoluta, Colby synergy. It counts as in vivo, Tuta absoluta. Conditions: 72 hours after treatment. The protocol:
as §1, §2, §3
(§7) The insecticidal compounds A (Novaluron) and B (mix partner) are formulated as equivalent suspension concentrates to eliminate the effects of differing formulation inerts on biological activity. Efficacy of the insecticidal compositions is evaluated with reference to a scale of 0% to 100% in comparison with untreated control plots. 0 means no damage and 100 means complete destruction of the harmful pests.
(§8) Likewise following experimentations were done on other mixtures of novaluron on various pests, the result of which are summarized in the below tables: […]

Experiment [4] relates to Cotton Leafworm, S. littoralis. In words: Insecticidal % control against Cotton Leafworm, S. littoralis, Colby synergy. The settings on record: 72 hours after treatment. Format: in vivo, Spodoptera littoralis. The protocol: as §1, §2, §3, §7, §8
The subject of experiment [5] is M. persicae. The experiment in a line: Insecticidal % control against M. persicae, Colby synergy. It counts as in vivo, Myzus persicae. The protocol:
as §1, §2, §3, §7, §8

The test system of experiment [6] is A. gossypii. The experiment in a line: Insecticidal % control against A. gossypii, Colby synergy. It counts as in vivo, Aphis gossypii. Conditions: Table 19 A; 96 hours after treatment; 500 ppm. The protocol:
as §1, §2, §3, §7, §8

The subject of experiment [7] is T. urticae. In words: Insecticidal % control against T. urticae, Colby synergy. It counts as in vivo, Tetranychus urticae. The protocol: as §1, §2, §3, §7, §8
Experiment [8] has as its system S. frugiperda. The experiment in a line: Insecticidal % control against S. frugiperda, Colby synergy. Format: in vivo, Spodoptera frugiperda. The settings on record: 120 hours after treatment. The protocol:
as §1, §2, §3, §7, §8

Experiment [9] deals with F. occidentalis. In words: Insecticidal % control against F. occidentalis, Colby synergy. It counts as in vivo, Frankliniella occidentalis. The protocol: as §1, §2, §3, §7, §8

On to `COc1cccc(C(=O)NN(C(=O)c2cc(C)cc(C)c2)C(C)(C)C)c1C` [Methoxyfenozide], for which the mortality at 0.01 µg/mL in experiment [1] (96 h, 3rd-instar larvae, 4-day feeding on treated leaves, day 4, read-out: Larval mortality, % (observed) 4 d) stood at 4.1%; in experiment [1] (4 days on treated then 4 days on untreated leaves, day 8, read-out: Larval mortality, % (observed) 8 d), 12%. Further, the “LWG % rel. Control” value in experiment [2] (4 days after treatment, 0.01 mg a.i./L of each active) is recorded as 93 % rel. Control. Also, the “effect on the weight gain of the Spodoptera littoralis larvae” value in experiment [2] (applied alone) is “neither novaluron nor methoxyfenozide alone have any effect on the weight gain”. Further, the “Observed % control (O)” value in experiment [3] (Table 2, 3 ppm) is 16.7%.

`CN(C(=O)c1cc(-c2cnn(-c3c(Cl)cc(C(F)(C(F)(F)F)C(F)(F)F)cc3Cl)c2)cnc1Cl)C1CC1` [Nicofluprole]: in [4] (Table 21, 12 ppm), the “Observed % control (O)” value came out at 0%.

Regarding `Cc1cc(C)c(C2=C(OC(=O)CC(C)(C)C)C3(CCCC3)OC2=O)c(C)c1` [Spiromesifen], the “Observed % control (O)” value in experiment [5] (Table 19 B, 7 days after treatment, 5 ppm) is recorded as 58.3%; in [6] it was 75.3%.

`CCOC(=O)OC1=C(c2cc(C)ccc2C)C(=O)N[C@]12CC[C@@H](OC)CC2` [Spirotetramat]: the “Observed % control (O)” value in experiment [5] (Table 6 A, 72 hours after treatment, 100 ppm) stood at 68%; in experiment [5] (Table 6 B, 7 days after treatment, 100 ppm) it was 85.7%; in [7] (Table 6 C, 48 hours after treatment, 600 ppm), 8.0%; in experiment [7] (Table 6 D, 72 hours after treatment, 6 ppm), 6.0%; in experiment [7] (Table 6 D, 72 hours after treatment, 600 ppm) it was 14.0%; in experiment [7] (Table 6 E, 7 days after treatment, 600 ppm), 16.2%.

As for `CC(c1ccc(C(F)(F)F)nc1)S(C)(=O)=NC#N` (stereo not shown) [Sulfoxaflor], the “Observed % control (O)” value came out at 64% in experiment [5] (Table 15 A, 48 hours after treatment, 0.5 ppm); 70% in experiment [5] (Table 15 B, 72 hours after treatment, 0.5 ppm); 82% in [5] (Table 15 B, 72 hours after treatment, 2.5 ppm).

Take `CNC(=O)c1cc(C#N)cc(C)c1NC(=O)c1cc(Cn2nnc(C(F)(F)F)n2)nn1-c1ncccc1Cl` [Tetraniliprole]: the “Observed % control (O)” value in experiment [8] (Table 10 A, 0.001 ppm) was 0%; in experiment [8] (Table 10 A, 0.01 ppm), 0%; in experiment [4] (Table 10 B, 0.004 ppm), 7.5%; in experiment [4] (Table 10 B, 0.02 ppm), 17.5%; in experiment [4] (Table 10 B, 0.1 ppm) it was 95%.

Consider `CCN(C(=O)CCSCCC(F)(F)F)c1cn(-c2cccnc2)nc1Cl` [Tyclopyrazoflor], for which the “Observed % control (O)” value in experiment [4] (Table 13, 12 ppm) turned out to be 12.5%.

As for Dicloromezotiaz, in [4] (Table 11, 12 ppm), the “Observed % control (O)” value is reported as 0%.

On to Spinetoram, for which the “Observed % control (O)” value is on record as 50% in experiment [3] (Table 5 C, 1 ppm); 33.3% in experiment [3] (Table 5 C, 3 ppm); 83.3% in experiment [3] (Table 5 C, 10 ppm); 18.0% in experiment [9] (Table 5 D, 48 hours after treatment, 3.5 ppm); 78.0% in experiment [9] (Table 5 D, 48 hours after treatment, 350 ppm); 22.0% in experiment [9] (Table 5 E, 72 hours after treatment, 3.5 ppm). Besides, the “Observed % control (O)” value is 82.0% in [9] (Table 5 E, 72 hours after treatment, 350 ppm); 30.0% in experiment [9] (Table 5 F, 7 days after treatment, 3.5 ppm); 82.0% in experiment [9] (Table 5 F, 7 days after treatment, 350 ppm); 20% in experiment [8] (Table 5 A, 0.01 ppm); 30% in [8] (Table 5 A, 0.025 ppm); 45% in experiment [8] (Table 5 A, 0.05 ppm). For the same molecule, the “Observed % control (O)” value is given as 0% in [4] (Table 5 B, 0.004 ppm) and 80% in experiment [4] (Table 5 B, 0.1 ppm).

On to Spinosad, for which the “Observed % control (O)” value in [9] (Table 4 A, 48 hours after treatment, 5.3 ppm) was determined as 2.0%; in [9] (Table 4 B, 72 hours after treatment, 5.3 ppm), 4.0%; in [9] (Table 4 B, 72 hours after treatment, 530 ppm) it was 32.0%; in experiment [9] (Table 4 C, 7 days after treatment, 5.3 ppm), 32.0%; in experiment [9] (Table 4 C, 7 days after treatment, 530 ppm), 60.0%.

A word on the mortality: it is the share of the test organisms that died.
